Like-named read-outs stand apart in the source and are kept apart here.
Assays:
recombinant PIM-1 = recombinant PIM-1 (Homo sapiens, UniProt P11309); test: PIM-1 kinase assay (radiometric, 15 uM ATP, DMSO 4%); format: biochemical; conditions: for inhibition at 0.5 µM: Table 5, compound at 500 nM, read-out: PIM1: % inh 500 nM; for inhibition at 2 µM: % inhibition at the high dose (2 micromolar) in a single screening assay, 15 μM ATP
K-562 = test: Alamar Blue cell proliferation assay, K-562; format: cell-based; conditions: Homo sapiens
Description: (§1) A representative cell-proliferation assay protocol using Alamar Blue dye (stored at 4° C., use 20 ul per well) is described hereafter.
(§2) 96-Well Plate Setup and Compound Treatment
(§3) a. Split and trypsinize cells.
(§4) b. Count cells using hemocytometer.
(§5) c. Plate 4,000-5,000 cells per well in 100 μl of medium and seed into a 96-well plate according to the following plate layout. Add cell culture medium only to wells B10 to B12. Wells B1 to B9 have cells but no compound added.
(§6) d. Add 100 μl of 2× drug dilution to each well in a concentration shown in the plate layout above. At the same time, add 100 μl of media into the control wells (wells 1310 to B12). Total volume is 200 μl/well.
(§7) e. Incubate four (4) days at 37° C., 5% CO2 in a humidified incubator.
(§8) f. Add 20 μl Alamar Blue reagent to each well.
(§9) g. Incubate for four (4) hours at 37° C., 5% CO2 in a humidified incubator.
(§10) h. Record fluorescence at an excitation wavelength of 544 nm and emission wavelength of 590 nm using a microplate reader.
(§11) In the assays, cells are cultured with a test compound for approximately four days, the dye is then added to the cells and fluorescence of […] dye is detected after approximately four hours. Different types of cells can be utilized in the assays (e.g., HCT-116 human colorectal carcinoma cells, PC-3 human prostatic cancer cells and MiaPaca human pancreatic carcinoma cells).

[1] = system: MiaPaca human pancreatic carcinoma cells; test: Alamar Blue cell proliferation assay, MiaPaCa; format: cell-based
Description: as §1, §2, §3, §4, §5, §6, §7, §8, §9, §10, §11

[2] = system: PC-3 human prostatic cancer cells; test: Alamar Blue cell proliferation assay, PC3; format: cell-based
Description: as §1, §2, §3, §4, §5, §6, §7, §8, §9, §10, §11

MV-4-11 = test: Alamar Blue cell proliferation assay, MV-4-11; format: cell-based; conditions: Homo sapiens
Description: as §1, §2, §3, §4, §5, §6, §7, §8, §9, §10, §11

[3] = system: HCT-116 human colorectal carcinoma cells; test: Alamar Blue cell proliferation assay, HCT-116; format: cell-based; conditions: Table 5, read-out: AB: HCT-116 IC50
Description: as §1, §2, §3, §4, §5, §6, §7, §8, §9, §10, §11

[4] = K562, Table 5, read-out: AB: K-562 IC50
[5] = MIA PaCa-2, Table 5, read-out: AB: MiaPaCa IC50
[6] = Table 5, read-out: AB: PC3 IC50
[7] = MV4-11, Table 5, read-out: AB: MV-4-11 IC50
[8] = Table 3, DMSO 4%, read-out: PIM1: IC50 (DMSO 4%)
[9] = Table 1, given for compounds with IC50 at or below 2 micromolar, 15 uM ATP, read-out: PIM-1 IC50

Sequence of recombinant PIM-1 (P11309 whole entry): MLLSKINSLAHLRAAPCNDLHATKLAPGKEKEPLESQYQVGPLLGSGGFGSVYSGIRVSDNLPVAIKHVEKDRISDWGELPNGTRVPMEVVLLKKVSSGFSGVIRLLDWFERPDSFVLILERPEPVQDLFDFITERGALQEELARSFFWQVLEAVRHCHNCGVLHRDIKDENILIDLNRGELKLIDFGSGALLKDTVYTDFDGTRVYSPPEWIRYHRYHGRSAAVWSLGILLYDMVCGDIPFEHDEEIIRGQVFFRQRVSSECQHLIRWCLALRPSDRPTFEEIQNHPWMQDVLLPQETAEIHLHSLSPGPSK

| Structure (SMILES) | inhibition at 0.5 µM (recombinant PIM-1) [%] | IC50 (K-562; [4]) [nM] | IC50 [1, 5] [nM] | IC50 [2, 6] [nM] | IC50 (MV-4-11; [7]) [nM] | IC50 [3] [nM] | also measured |
| --- | --- | --- | --- | --- | --- | --- | --- |
| Cn1cncc1CNC(=O)c1cccc(-c2coc(/C=C3/C(=O)Nc4ccc(F)cc43)c2)c1 [drawing 252] | 12.7 | > 10000 | > 10000 | > 10000 | 1380 | > 10000 |  |
| CN1CCCC(NC(=O)c2cccc(-c3coc(/C=C4/C(=O)Nc5ccc(F)cc54)c3)c2)C1 (stereo not shown) [drawing 249] | 6.11 | 3120 | > 10000 | 7000 | 1010 | 4650 |  |
| NS(=O)(=O)c1ccc(-c2ccc(/C=C3/C(=O)Nc4ccc(Cl)cc43)o2)cc1 |  |  |  |  |  |  | IC50 (recombinant PIM-1; [8]): < 1000 nM; IC50 ([2]; Table 3, read-out: AB: PC3): > 10000 nM |
| CN1CCCCC1CNC(=O)c1cccc(-c2coc(/C=C3/C(=O)Nc4ccc(F)cc43)c2)c1 (stereo not shown) [drawing 253] | 9.42 | 1650 | > 10000 | > 10000 | 627 | 4470 |  |
| Cn1cncc1CNC(=O)c1cccc(-c2coc(/C=C3/C(=O)Nc4ccccc43)c2)c1 | -14.6 | > 10000 | > 10000 | > 10000 | 998 | > 10000 |  |
| COC(=O)c1cccc(-c2coc(/C=C3/C(=O)Nc4ccccc43)c2)c1 | -18.4 | 1310 | 4340 | 1890 | > 10000 | 2330 |  |
| Nc1cccc(-c2ccc(/C=C3/C(=O)Nc4ccccc43)o2)c1 [drawing 234] |  |  |  |  |  |  | IC50 (recombinant PIM-1; Table 4, 15 um ATP, read-out: PIM1: IC50 (15 um ATP)): 992 nM; IC50 (K-562; K562, Table 4, read-out: AB: K-562): 5130 nM; IC50 (MV-4-11; MV4-11, Table 4, read-out: AB: MV-4-11): 2440 nM |
| CN1CCCCC1CNC(=O)c1cccc(-c2coc(/C=C3/C(=O)Nc4ccccc43)c2)c1 (stereo not shown) | -28.9 | 99 | 2400 | 1650 | 120 | 2490 |  |
| CN1CCCN(C(=O)c2cccc(-c3ccc(CC4C(=O)Nc5ccc(Cl)cc54)o3)c2)CC1 (stereo not shown) [drawing 213] |  |  |  |  |  |  | IC50 (recombinant PIM-1; Table 2, read-out: PIM1: IC50): < 100 nM; IC50 (K-562; K562, Table 2, read-out: AB: K-562): 240 nM; IC50 ([1]; MIA PaCa-2, Table 2, read-out: AB: MiaPaCa): 559 nM; IC50 ([2]; Table 2, read-out: AB: PC3): 15400 nM |
| CCN(CC)CCNC(=O)c1cccc(-c2coc(/C=C3/C(=O)Nc4ccccc43)c2)c1 | -10.9 | > 10000 | 9230 | > 10000 | 761 | 7820 |  |
| O=C1Nc2ccccc2/C1=C\c1cc(-c2cccc(C(=O)NCc3ccncc3)c2)co1 | -4.22 | > 10000 | > 10000 | > 10000 | 168 | > 10000 |  |
| O=C1Nc2ccc(F)cc2/C1=C\c1cc(-c2cccc(C(=O)NCc3ccncc3)c2)co1 [drawing 255] | -19.1 | > 10000 | > 10000 |  | 1570 | > 10000 |  |
| CCN1CCCC1CNC(=O)c1cccc(-c2coc(/C=C3/C(=O)Nc4ccc(F)cc43)c2)c1 (stereo not shown) [drawing 250] | 17.1 | 941 | > 10000 | > 10000 | 485 | 5230 |  |
| CN1CCCC(NC(=O)c2cccc(-c3coc(/C=C4/C(=O)Nc5ccccc54)c3)c2)C1 (stereo not shown) | -22.7 | > 10000 | > 10000 | > 10000 | 315 | 4310 |  |
| CN(C)C1CCN(C(=O)c2cccc(-c3coc(/C=C4/C(=O)Nc5ccc(F)cc54)c3)c2)CC1 [drawing 256] | 10.8 | 3700 | > 10000 | 7530 | 516 | 3850 |  |
| CN1CCCN(C(=O)c2cccc(-c3ccc(/C=C4/C(=O)Nc5ccc(F)cc54)o3)c2)CC1 |  |  |  |  |  |  | IC50 (recombinant PIM-1; [8]): < 1000 nM; IC50 ([2]; Table 3, read-out: AB: PC3): > 10000 nM |
| CN(C)C1CCN(C(=O)c2cc(-c3ccc(/C=C4/C(=O)Nc5ccc(F)cc54)o3)ccc2Cl)CC1 [Compound 75] |  |  |  |  |  |  | inhibition at 2 µM (recombinant PIM-1; Table 1): 27.8% |
| CCN1CCCC1CNC(=O)c1cccc(-c2ccc(/C=C3/C(=O)Nc4ccccc43)o2)c1 (stereo not shown) [Compound 57] |  |  |  |  |  |  | inhibition at 2 µM (recombinant PIM-1; Table 1): 10.6% |

| Structure (SMILES) | inhibition at 0.5 µM (recombinant PIM-1) [%] | IC50 (K-562; [4]) [nM] | IC50 [1, 5] [nM] | IC50 [2, 6] [nM] | IC50 (MV-4-11; [7]) [nM] | IC50 [3] [nM] | also measured |
| --- | --- | --- | --- | --- | --- | --- | --- |
| CN1CCCCC1CNC(=O)c1cccc(-c2ccc(/C=C3/C(=O)Nc4ccc(C(F)(F)F)cc43)o2)c1 (stereo not shown) [Compound 48] |  |  |  |  |  |  | inhibition at 2 µM (recombinant PIM-1; Table 1): -4.56% |
| CN(C)C1CCN(C(=O)c2cccc(-c3coc(/C=C4/C(=O)Nc5ccccc54)c3)c2)CC1 | -38.8 | 77 | 9370 | > 10000 | 2140 | 7010 |  |
| Cn1cncc1CNC(=O)c1ccc(-c2ccc(/C=C3/C(=O)Nc4ccccc43)o2)cn1 [Compound 132] |  |  |  |  |  |  | IC50 (recombinant PIM-1; [9]): < 1000 nM |
| CC1CCCN(CCCNC(=O)c2cccc(-c3ccc(/C=C4/C(=O)Nc5ccc(Cl)cc54)o3)c2)C1 (stereo not shown) [Compound 122] |  |  |  |  |  |  | inhibition at 2 µM (recombinant PIM-1; Table 1): 39.3% |
| O=C1Nc2ccc(Cl)cc2/C1=C\c1ccc(-c2cccc(C(=O)NCc3ccncc3)c2)o1 [Compound 108] |  |  |  |  |  |  | IC50 (recombinant PIM-1; [9]): < 1000 nM |
| CN1CCCC(NC(=O)c2ccc(Cl)c(-c3ccc(/C=C4/C(=O)Nc5ccc(F)cc54)o3)c2)C1 (stereo not shown) [Compound 101] |  |  |  |  |  |  | IC50 (recombinant PIM-1; [9]): < 2000 nM |
| CCN(CC)CCNC(=O)c1cccc(-c2coc(/C=C3/C(=O)Nc4ccc(F)cc43)c2)c1 [drawing 254] | 11.5 | 2440 | > 10000 | > 10000 | 271 | 3600 |  |
| CN1CCCN(C(=O)c2ccc(-c3ccc(/C=C4/C(=O)Nc5ccc(Cl)cc54)o3)cc2)CC1 [Compound 196] |  |  |  |  |  |  | IC50 (recombinant PIM-1; [9]): < 1000 nM |
| CN1CCCC(NC(=O)c2ccccc2-c2ccc(/C=C3/C(=O)Nc4ccc(F)cc43)o2)C1 (stereo not shown) [Compound 63] |  |  |  |  |  |  | inhibition at 2 µM (recombinant PIM-1; Table 1): 10.3% |
| CCN(CC)CCNC(=O)c1ccc(-c2ccc(/C=C3/C(=O)Nc4ccccc43)o2)cn1 [Compound 134] |  |  |  |  |  |  | inhibition at 2 µM (recombinant PIM-1; Table 1): 32.4% |
| O=C1Nc2ccc(Cl)cc2/C1=C\c1ccc(-c2cccc(C(=O)NCC(O)c3cccnc3)c2)o1 (stereo not shown) [Compound 189] |  |  |  |  |  |  | IC50 (recombinant PIM-1; [9]): < 1000 nM |
| O=C1Nc2ccc(F)cc2/C1=C\c1ccc(-c2cc(C(=O)NCCN3CCCC3)ccc2Cl)o1 [Compound 13] |  |  |  |  |  |  | IC50 (recombinant PIM-1; [9]): < 2000 nM |
| CN1CCCCC1CNC(=O)c1ccc(-c2ccc(/C=C3/C(=O)Nc4ccccc43)o2)cc1 (stereo not shown) [Compound 37] |  |  |  |  |  |  | IC50 (recombinant PIM-1; [9]): < 2000 nM |
| CN1CCCCC1CNC(=O)c1ccc(-c2ccc(/C=C3/C(=O)Nc4ccc(F)cc43)o2)cc1 (stereo not shown) [Compound 86] |  |  |  |  |  |  | inhibition at 2 µM (recombinant PIM-1; Table 1): 90.6%; IC50 (recombinant PIM-1; [9]): < 1000 nM |
| O=C1Nc2ccc(Cl)cc2/C1=C\c1ccc(-c2ccc(Cl)c(C(=O)NCCN3CCCC3)c2)o1 [Compound 106] |  |  |  |  |  |  | inhibition at 2 µM (recombinant PIM-1; Table 1): 22.2% |
| CN1C(=O)/C(=C/c2ccc(-c3cccc(C(=O)O)c3)o2)c2ccccc21 [Compound 2] |  |  |  |  |  |  | inhibition at 2 µM (recombinant PIM-1; Table 1): 31.6% |
| Cc1cc(NCCN2CCCC2)c2cccc(-c3ccc(/C=C4/C(=O)Nc5ccc(Cl)cc54)o3)c2n1 [Compound 139] |  |  |  |  |  |  | inhibition at 2 µM (recombinant PIM-1; Table 1): -23.4% |

— patent US20120190669A1, “OXINDOLE COMPOUNDS” (CYLENE PHARMACEUTICALS, INC., priority 2008, published 2012)
